This is an account of results in ChEMBL document CHEMBL1201862, “PubChem BioAssay data set” (2004).

Structures can show the parent of a compound that is named as a salt. Calls of active or inactive are those of the source.

The target in assay [1] is T1, Heat shock factor protein 1 (Mus musculus, UniProt P38532).
T1 sequence (P38532 whole entry): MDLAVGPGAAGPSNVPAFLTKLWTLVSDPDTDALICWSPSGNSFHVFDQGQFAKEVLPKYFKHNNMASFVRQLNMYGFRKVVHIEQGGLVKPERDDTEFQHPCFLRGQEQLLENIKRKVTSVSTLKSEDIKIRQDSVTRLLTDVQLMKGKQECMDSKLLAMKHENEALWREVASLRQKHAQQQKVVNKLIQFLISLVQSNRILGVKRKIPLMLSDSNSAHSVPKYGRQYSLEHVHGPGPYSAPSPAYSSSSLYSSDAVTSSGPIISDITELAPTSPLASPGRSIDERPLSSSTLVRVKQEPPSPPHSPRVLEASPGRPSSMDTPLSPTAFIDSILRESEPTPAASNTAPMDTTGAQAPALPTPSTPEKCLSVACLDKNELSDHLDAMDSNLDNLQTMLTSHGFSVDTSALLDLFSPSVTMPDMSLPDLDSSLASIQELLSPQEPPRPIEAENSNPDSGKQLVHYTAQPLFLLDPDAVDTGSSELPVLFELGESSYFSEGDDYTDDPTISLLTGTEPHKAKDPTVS
Description: HSF1 potentiators in luciferase reporter cells, confirmation, cell-based, NIH3T3, luminescence, dose retest (AID 435004).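 Note: stress induced by proteasome inhibitor MG132 added 30 min after compound; luciferase reporter driven by HSF1 response element in NIH3T3 cells; actives raise luminescence as potentiators of the MG132 stress response.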 Type of assay: functional.

The nature of assay [2]: HEp-2 cell cytotoxicity, dose response, cytotoxicity control for RSV inhibitor project, HTS (AID 2410). In kind it is functional. As to conditions: human respiratory syncytial virus.
Assay [3] can be described thus: cells. In kind it is functional.
Assay [4] deals with INS1. As to the kind of experiment: beta cell apoptosis inhibitors, cytokine rescue, dose response, luminescence, retest (AID 449756).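 Note: cell death triggered by IL-1 beta plus TNF-alpha plus IFN-gamma mixture; protective hits raise ATP signal compared with cytokine alone wells.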 In kind it is functional, cell-based. Conditions: Rattus norvegicus.
Assay [5] deals with FAD-linked sulfhydryl oxidase ALR (Homo sapiens, UniProt P55789). Description: inhibitors of human ALR sulfhydryl oxidase, dose response, biochemical, H2O2 detection, luminescence, cherry-pick (AID 493248).
Chain of FAD-linked sulfhydryl oxidase ALR (P55789 whole entry): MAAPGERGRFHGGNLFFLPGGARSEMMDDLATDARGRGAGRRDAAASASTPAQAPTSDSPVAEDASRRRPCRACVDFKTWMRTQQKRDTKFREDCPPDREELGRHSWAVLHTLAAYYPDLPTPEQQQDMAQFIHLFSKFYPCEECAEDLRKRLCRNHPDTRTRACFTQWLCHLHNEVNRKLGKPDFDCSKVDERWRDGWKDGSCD
Assay [6] deals with Cytochrome P450 2C9 (Homo sapiens, UniProt P11712).
Chain of Cytochrome P450 2C9 (P11712 whole entry): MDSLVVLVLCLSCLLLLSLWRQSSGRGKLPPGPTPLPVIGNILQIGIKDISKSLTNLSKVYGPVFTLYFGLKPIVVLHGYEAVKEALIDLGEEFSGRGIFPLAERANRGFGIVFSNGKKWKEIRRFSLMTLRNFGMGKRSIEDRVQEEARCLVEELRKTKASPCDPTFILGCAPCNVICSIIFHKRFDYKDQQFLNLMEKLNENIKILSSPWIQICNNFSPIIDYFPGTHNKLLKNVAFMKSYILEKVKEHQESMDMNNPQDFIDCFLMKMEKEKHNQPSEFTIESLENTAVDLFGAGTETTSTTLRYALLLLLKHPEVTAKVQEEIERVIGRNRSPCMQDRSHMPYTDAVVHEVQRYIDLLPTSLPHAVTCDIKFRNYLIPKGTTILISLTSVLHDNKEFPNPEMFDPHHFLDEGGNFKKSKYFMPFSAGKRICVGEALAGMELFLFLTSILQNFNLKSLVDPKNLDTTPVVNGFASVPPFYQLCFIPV
Assay [7] addresses Cytochrome P450 3A4 (Homo sapiens, UniProt P08684).
The target of assay [8] is T2, Cytochrome P450 1A2 (Homo sapiens, UniProt P05177).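 Note: PubChem cytochrome P450 panel assay, CYP1A2 panel member.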
T2 sequence (P05177 whole entry): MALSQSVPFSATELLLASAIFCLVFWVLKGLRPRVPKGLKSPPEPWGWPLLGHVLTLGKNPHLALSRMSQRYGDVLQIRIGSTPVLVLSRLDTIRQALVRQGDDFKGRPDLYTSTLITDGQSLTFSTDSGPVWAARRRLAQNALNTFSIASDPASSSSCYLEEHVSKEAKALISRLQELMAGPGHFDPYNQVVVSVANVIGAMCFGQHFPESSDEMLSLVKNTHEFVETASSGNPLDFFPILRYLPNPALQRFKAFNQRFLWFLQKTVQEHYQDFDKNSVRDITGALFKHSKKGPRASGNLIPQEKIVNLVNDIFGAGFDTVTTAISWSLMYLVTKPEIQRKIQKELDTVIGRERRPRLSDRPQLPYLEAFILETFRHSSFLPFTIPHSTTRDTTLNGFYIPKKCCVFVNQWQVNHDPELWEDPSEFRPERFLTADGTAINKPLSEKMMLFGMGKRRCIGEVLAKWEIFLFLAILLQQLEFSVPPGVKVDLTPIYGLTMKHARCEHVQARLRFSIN

The nature of assay [9]: microbe, parasite or virus in culture. Conditions: Mycobacterium tuberculosis. In kind it is functional.
The target in assay [10] is T3, Rac GTPase-activating protein 1 (Homo sapiens, UniProt Q9H0H5).
T3 sequence (Q9H0H5 whole entry): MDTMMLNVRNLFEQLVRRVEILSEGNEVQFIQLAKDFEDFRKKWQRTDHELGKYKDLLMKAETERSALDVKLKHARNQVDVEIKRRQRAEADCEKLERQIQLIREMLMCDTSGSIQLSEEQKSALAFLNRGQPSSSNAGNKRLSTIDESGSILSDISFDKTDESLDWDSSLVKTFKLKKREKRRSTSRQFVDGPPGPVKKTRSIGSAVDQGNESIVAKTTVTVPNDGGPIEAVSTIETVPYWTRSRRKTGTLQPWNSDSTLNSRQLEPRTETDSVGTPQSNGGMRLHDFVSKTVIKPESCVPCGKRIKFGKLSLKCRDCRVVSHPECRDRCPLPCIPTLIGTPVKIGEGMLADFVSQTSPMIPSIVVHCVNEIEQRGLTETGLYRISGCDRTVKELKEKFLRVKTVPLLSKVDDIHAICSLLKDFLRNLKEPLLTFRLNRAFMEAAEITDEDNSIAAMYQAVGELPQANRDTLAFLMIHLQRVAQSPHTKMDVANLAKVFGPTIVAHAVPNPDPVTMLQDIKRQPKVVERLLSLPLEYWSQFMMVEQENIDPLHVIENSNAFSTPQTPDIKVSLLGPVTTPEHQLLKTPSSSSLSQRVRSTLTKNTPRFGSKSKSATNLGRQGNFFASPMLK
Description: MgcRacGAP GTPase-activating activity inhibitors, confirmation, biochemical, ADP Hunter fluorescence, primary and confirmatory (AID 624330). Type of assay: functional.

Assay [11] is described as follows: Luminescence Cell-Based Dose Response HTS to Identify Activators of Luciferase Translation or Activity in H4 […] Cells. [Related pubchem assays: 1829 (Project Summary), 1814 (Primary HTS)]. In kind it is functional.
Assay [12] can be described thus: growth suppression of PTEN-null colon cells, dose response, cell-based, HCT116 PTEN knockout (AID 1047).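 Note: HCT116 colon tumor cells with PTEN knocked out; cells exposed to compound for 60 hours before readout; potency for loss of cell viability measured by luminescence.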 Type of assay: functional.
Assay [13] in a line: growth suppression of beta-catenin-knockout colon cells, dose response, cell-based, HCT116, human colon tumor (AID 1045).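 Note: HCT116 colon tumor cells with beta catenin knocked out; cells exposed to compound for 60 hours.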 In kind it is functional.
In assay [14] the target is T4, Protein skinhead-1 (Caenorhabditis elegans, UniProt P34707).
T4 sequence (P34707 whole entry): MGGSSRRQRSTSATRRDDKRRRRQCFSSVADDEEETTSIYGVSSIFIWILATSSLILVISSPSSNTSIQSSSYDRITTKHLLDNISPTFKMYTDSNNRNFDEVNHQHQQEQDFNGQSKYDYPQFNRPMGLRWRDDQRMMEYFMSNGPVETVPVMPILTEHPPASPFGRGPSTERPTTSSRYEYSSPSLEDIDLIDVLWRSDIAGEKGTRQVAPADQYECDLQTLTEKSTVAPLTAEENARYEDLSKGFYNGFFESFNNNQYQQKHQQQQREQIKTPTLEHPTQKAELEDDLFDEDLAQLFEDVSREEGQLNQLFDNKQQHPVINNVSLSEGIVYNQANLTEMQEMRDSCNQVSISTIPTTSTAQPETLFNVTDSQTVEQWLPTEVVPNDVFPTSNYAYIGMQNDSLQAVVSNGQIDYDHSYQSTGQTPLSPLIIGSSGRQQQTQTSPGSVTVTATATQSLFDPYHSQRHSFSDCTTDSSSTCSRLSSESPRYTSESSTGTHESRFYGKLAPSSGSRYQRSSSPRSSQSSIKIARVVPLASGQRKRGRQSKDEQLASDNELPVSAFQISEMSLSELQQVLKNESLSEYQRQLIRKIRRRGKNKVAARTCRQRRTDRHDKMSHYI
Type of assay: functional.

Chain of Cytochrome P450 3A4 (P08684 whole entry): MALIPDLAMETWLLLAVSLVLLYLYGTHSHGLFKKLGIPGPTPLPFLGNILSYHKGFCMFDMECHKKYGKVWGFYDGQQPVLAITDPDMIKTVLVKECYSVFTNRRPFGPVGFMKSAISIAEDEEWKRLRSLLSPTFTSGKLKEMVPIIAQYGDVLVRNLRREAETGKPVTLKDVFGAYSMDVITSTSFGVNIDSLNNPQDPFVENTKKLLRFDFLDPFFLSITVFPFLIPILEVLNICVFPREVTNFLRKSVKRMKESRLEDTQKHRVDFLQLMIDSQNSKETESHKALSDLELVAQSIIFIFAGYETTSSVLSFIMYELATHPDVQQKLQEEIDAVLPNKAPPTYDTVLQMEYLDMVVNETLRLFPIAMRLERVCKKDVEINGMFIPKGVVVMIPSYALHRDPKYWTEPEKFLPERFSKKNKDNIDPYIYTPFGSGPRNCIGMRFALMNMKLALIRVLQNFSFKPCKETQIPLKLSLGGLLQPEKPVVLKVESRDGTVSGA

Regarding `COc1ccccc1-c1ccc(SCC(=O)Nc2cc(C)on2)nn1`, the EC50 in [1] was > 260 µM (inactive).
Turning to `O=C1CCC(/C=C/c2ccccc2)=NN1Cc1ccc(Cl)c(Cl)c1`, in [2], the CC50 was 24.4 µM (active).
`Nc1n[nH]c(SCC(=O)Nc2ccc([N+](=O)[O-])cc2Br)n1`: the EC50 in [1] was > 260 µM (inactive).
In the case of `O=C(CCNc1ccc(Cl)cc1)c1cccs1`, in assay [3], the IC50 is 25.5 µM (active).
As for `C/C(=N\NC(=O)c1ccoc1C)c1ccccc1O`, the AC50 in [4] is 3.12 µM (active).
Take `COc1cc(C2NC(=O)NC(C)=C2C(=O)OC2CCCCC2)cc(Cl)c1O` (stereo not drawn): the EC50 in [1] was > 260 µM (inactive).
Regarding `COc1ccc(C(=O)COC(=O)COc2ccc(C)c(C)c2)cc1`, the IC50 in [3] is > 50 µM (active).
In the case of `OCCOCCn1c(CCNc2nc(-c3ccc(Cl)cc3)cs2)nc2cc(Cl)c(Cl)cc21`, the CC50 in assay [2] was 14.3 µM (active).
As to `CCOc1ccc2nc(NC(=O)c3cccc(-c4cc5ccccc5oc4=O)c3)sc2c1`, the AC50 in assay [4] is 3.24 µM (active).
For the molecule `COC(=O)C1CCN(C(=O)Cc2c(OC)ccc3cc(Br)ccc23)CC1`, the 50% effective concentration (EC50) in assay [1] is 68.2 µM (active).
Regarding `Cc1cccc(NC(=O)Cc2coc3ccc4ccccc4c23)n1`, the CC50 in assay [2] was 33.8 µM (active).
Take `Cc1ccccc1-c1cc(=O)c2c(O)cccc2o1`: the EC50 in assay [1] was > 260 µM (inactive).
For `CCN(CC)Cc1c(-c2ccccc2)nc2ccc(C)cc2c1O`, in [5], the AC50 was 1.77 µM (active).
For the molecule `C=Cc1cccc(NC(=O)COc2ccccc2)c1`, the IC50 in [3] is > 50 µM (active).
Same read-out and setting: next, `COc1ccc(C(=O)OCn2nnc3ccccc3c2=O)cc1[N+](=O)[O-]`: 7.55 µM (active).
Regarding `CCOC(=O)c1cnn(-c2ccccc2)c1-n1cccc1C(=O)C(=O)Nc1ccccc1C(F)(F)F`, the CC50 in assay [2] is 24.1 µM (active). The AC50 is 5.62 µM (inconclusive) in assay [6], 4.47 µM (inconclusive) in [7] and 14.1 µM (inconclusive) in assay [8].
`Oc1ccccc1/N=C/c1ccc[nH]1`: in [9], the CC50 is > 40 µM (active).
With `C/N=c1\scc(-c2ccccc2Br)n1/N=C/c1ccc[nH]1`, the CC50 in assay [9] was > 40 µM (active).
For `CCOC(=O)c1cc(-c2cccc([N+](=O)[O-])c2)on1`, the IC50 in [3] is 10.3 µM (active).
With `COc1ccccc1Nc1nc(C2(C)CCC(=O)O2)cs1` (stereo not drawn), the AC50 in assay [5] is 4.38 µM (active).
As to `O=C1C2CCCCC2C(=O)N1Cc1ccccc1` (stereo not drawn), in [1], the EC50 is > 260 µM (inactive).
Consider `CCOc1cc(/C=N/NC(N)=O)cc(Br)c1OCc1ccccc1`, for which the CC50 in assay [2] is 19.4 µM (active).
As to `CSc1nsc(/C=C/Nc2ccc(O)cc2C)c1C#N`, the CC50 in [9] is > 40 µM (active).
On to `COc1cccc(/C=N/N2C(=O)NC3(CCCCC3)C2=O)c1O`, for which the AC50 in [5] was 9.34 µM (active).
As to `COc1ccc(-c2ccnc3nc(N4CCN(c5ccccc5)CC4)nn23)cc1`, the CC50 in assay [9] was > 40 µM (active).
Turning to `CC(C)CC(NS(=O)(=O)c1ccc2c(c1)oc(=O)n2C)C(=O)NC1CCCc2ccccc21` (stereo not drawn), the EC50 in assay [1] was > 260 µM (inactive).
Same read-out and setting: next, `CO/N=C/c1cc([N+](=O)[O-])ccc1Sc1ccc(C)cc1`: > 260 µM (inactive).
Regarding `Cc1cc(C(=O)C(C)OC(=O)c2ccc(NC(=O)CC#N)cc2)c(C)n1-c1ccc(OC(F)F)cc1` (stereo not drawn), the AC50 in assay [4] is 4.26 µM (active).
Regarding `CCOC(=O)CC1NCCc2c1[nH]c1ccc(OC)cc21` (stereo not drawn), the EC50 in assay [1] is > 260 µM (inactive).
For the molecule `CC(=O)c1c(C)[nH]c(C(=O)Nc2cccc(C)n2)c1C`, the EC50 in [1] was > 260 µM (inactive).
Consider `NNCCc1ccccc1` [PHENELZINE SULFATE], for which the half-maximal activity concentration (AC50) in [5] was 7.5 µM (active).
For the molecule `COc1ccc(C2(C)NC(=O)N(CC3CCCCC3)C2=O)cc1` (stereo not drawn), in [1], the EC50 is > 260 µM (inactive).
`COC(=O)c1ccc(-c2ccco2)n1Cc1nc(-c2ccc(OC)c(OC)c2)oc1C`: in assay [2], the CC50 is 34 µM (active).
On to `COc1cc(/C(C)=N/N2CCN(Cc3ccc(C)cc3)CC2)ccc1O`, for which, in assay [5], the AC50 is 7.66 µM (active). Moreover, the IC50 in assay [10] was 271 µM (active).
With `COc1ccc(/C=C/C(=O)OC2CCCN(C)C2)cc1` (stereo not drawn), in assay [1], the EC50 was > 260 µM (inactive).
Consider `N#Cc1c(-c2ccc(Cl)cc2)ccn2nc(C3CCCCC3)nc12`, for which the EC50 in assay [11] is 6.98 µM (active).
For the molecule `COc1cccc(CNC(=O)CCNC(=O)N2CCn3c2nc2ccccc23)c1`, in assay [5], the AC50 was 1.09 µM (active).
As for `CCCCn1c(SCc2ncc(-c3ccccc3)o2)nc2cc(S(N)(=O)=O)ccc21`, the CC50 in assay [9] is > 40 µM (active). Further, the concentration for a half-maximal effect (EC50) in assay [12] is 26 µM (active); in [13], 27.4 µM (active).
Regarding `CC(C)Cc1nnc(NC(=O)CCS(=O)(=O)c2ccc(Cl)cc2)s1`, in [3], the IC50 was 36 µM (active).
As for `COc1cc(NC(=O)c2ccc(C(C)(C)C)cc2)c(OC)cc1NC(=O)CN1CCCCC1`, the CC50 in assay [9] was > 40 µM (active).
Consider `O=C(NCc1cccs1)C(=O)NCC(c1ccco1)N1CCN(c2ccccc2)CC1` (stereo not drawn), for which the AC50 in assay [5] is 0.01 µM (active).
As for `Nc1n[nH]c(N2CCN(c3ccc(Cl)cc3)CC2)n1`, the AC50 in assay [5] is 0.325 µM (active).
Consider `COc1ccccc1N1CCN(C(=O)CCNS(=O)(=O)c2cc(Br)cnc2N)CC1`, for which the AC50 in [5] is 11.8 µM (active).
Turning to `CCN(CC)C(=O)Oc1ccc(Br)c2ccccc12`, the IC50 in assay [14] is > 100 µM (inactive).
As for `Cc1ccc(NC(=S)N(CCCN2CCCC2)Cc2cccn2Cc2ccc(Cl)cc2)cc1C`, the CC50 in [9] is 17.7 µM (active).
Turning to `O=C(C1=C[C@@H](C2CC2)C[C@@H](OCc2ccc(CO)cc2)O1)N1CCN(Cc2ccccc2)CC1`, the EC50 in assay [1] was > 260 µM (inactive).
As for `O=C(Nc1ccc(-c2nnc(-c3ccccc3)o2)cc1)c1ccc(Br)o1`, in assay [14], the IC50 is 76.3 µM (inactive).
